Data taken from patent publication USRE48461E1, “Modulation of androgen receptor expression” (Ionis Pharmaceuticals, Inc., priority 2012, dated 2021).

Tests used:
Assay type in all cases: cell-based, human
[1] = system: prostate-specific antigen (PSA) mRNA; assay: PSA mRNA levels in LMR20 cells; details: with or without DHT/R1881
Procedure: LMR20 cells were plated at 1,500 cells per well in phenol red-free medium with CSS. […] Results are presented in Tables 43-45 as mRNA levels expressed as a percentage of the baseline values. mRNA levels may be lowered or increased after treatment.

[2] = system: LNCaP cells; assay: LNCaP cell proliferation (complete or CSS+DHT medium); details: 5 days; for Proliferation (% untreated control) in LNCaP cells cultured in CSS + DHT medium: CSS + 1 nM DHT medium
Summary of the method: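 Proliferation of LNCaP cells read after 5 days of treatment in complete medium or charcoal-stripped serum medium plus 1 nM DHT, using CellTiter 96 AQueous One (MTS) or CellTiter-Glo.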

[3] = system: TMPRSS2 mRNA; assay: TMPRSS2 expression in C4-2 cells; details: 48 hrs; for Percent inhibition of TMPRSS2 expression: C4-2 cells, CSS + DHT medium
Procedure: Cells were plated at 1,000 cells per well. […] After an incubation period of 48 hrs, RNA levels of AR, PSA and TMPRSS2 were measured.
Cells were plated at 2,000 cells per well and cultured in CSS media with 1 nM DHT. […] After an incubation period of 48 hrs, RNA levels of AR, PSA and TMPRSS2 were measured.

[4] = system: C4-2B cells; assay: C4-2B cell proliferation, ASO in combination with MDV3100 (Example 21); details: for Proliferation (% untreated control) in C4-2B without MDV-3100: 5 days
Procedure: C4-2B cells were plated at 1,000 cells per well. […] ISIS 549148 was included as a negative control. […] After a treatment period of 5 days, the proliferative capacity of the cancer cells was measured with CellTiter 96® AQueous One Solution Cell Proliferation kit (Promega), following the manufacturer's instructions. […]

[5] = system: 22RV1 cells; assay: 22RV1 cell proliferation, ASO in combination with MDV3100 (Example 22); details: for Proliferation (% untreated control) in 22RV1 without MDV-3100: RNAiMAX, 3 days
Summary of the method: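 Cells seeded at 2,000 per well in 5% CSS medium for 48 h, then treated for 3 days. Proliferation read with a tetrazolium (CellTiter 96 AQueous One) kit and given as percent inhibition relative to untreated cells.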

[6] = system: C4-2 cells; assay: C4-2 cell proliferation (complete or CSS+DHT medium); details: 5 days; for Proliferation (% untreated control): C4-2 cells
Procedure: After a treatment period of 5 days in complete medium or CSS+1 nM DHT medium, the proliferative capacity of the cancer cells was measured with using CellTiter 96® AQueous One Solution or CellTiter-Glo® Cell Proliferation kit (Promega), following the manufacturer's instructions. […] The proliferative capacity of cells cultured in CSS medium without DHT is 17% of untreated control levels.

[7] = complete medium or CSS+1 nM DHT

In the case of “TGATTTAATGGTTGCA [ISIS 569236] (cEt/MOE gapmer chemistry, further chemistry not given here) [targets intron 1]”, the “PSA mRNA levels in LMR20 cells” value [1] was “reduced PSA levels and TMPRSS2 more extensively than the LNA gapmer ISIS 554221 or MDV3100”, the “Proliferation (% untreated control) in LNCaP cells cultured in CSS + DHT medium” value ([2]; 0.04 μM) was 95 % untreated control and the “Proliferation (% untreated control) in LNCaP cells cultured in CSS + DHT medium” value ([2]; 0.2 μM) was 99 % untreated control. The “Proliferation (% untreated control) in LNCaP cells cultured in CSS + DHT medium” value ([2]; 1 μM) was 54 % untreated control, the “Proliferation (% untreated control) in LNCaP cells cultured in CSS + DHT medium” value ([2]; 5.0 μM) was 17 % untreated control and the “proliferation of LNCaP cells” value [2, 7] was “reduced proliferation of the cells in a dose dependent compared to the control”. For the same sequence, the “Proliferation (% untreated control) in LNCaP cells cultured in complete medium” value ([2]; 0.04 μM) was 100 % untreated control, the “Proliferation (% untreated control) in LNCaP cells cultured in complete medium” value ([2]; 0.2 μM) was 85 % untreated control and the “Proliferation (% untreated control) in LNCaP cells cultured in complete medium” value ([2]; 1 μM) was 68 % untreated control. For the same sequence, the “Proliferation (% untreated control) in LNCaP cells cultured in complete medium” value ([2]; 5.0 μM) was 54 % untreated control, the “Percent inhibition of TMPRSS2 expression” value ([3]; 0.04 μM) was 0% and the “Percent inhibition of TMPRSS2 expression” value ([3]; 0.2 μM) was 11%. The “Percent inhibition of TMPRSS2 expression” value ([3]; 1 μM) was 61%, the “Percent inhibition of TMPRSS2 expression” value ([3]; 5.0 μM) was 67% and the “Percent inhibition of TMPRSS2 expression in C4-2 cells cultured in complete medium” value (“Percent inhibition … in complete medium” below) ([3]; 0.04 μM) was 17%. For the same sequence, the “Percent inhibition … in complete medium” value ([3]; 0.2 μM) was 54%, the “Percent inhibition … in complete medium” value ([3]; 1 μM) was 67% and the “Percent inhibition … in complete medium” value ([3]; 5.0 μM) was 67%. The “Proliferation (% untreated control) in C4-2B with 0.08 μM MDV-3100” value ([4]; ASO dose 0.04 μM + 0.08 μM MDV-3100) was 79 % untreated control, the “Proliferation (% untreated control) in C4-2B with 0.4 μM MDV-3100” value ([4]; ASO dose 0.04 μM + 0.4 μM MDV-3100) was 63 % untreated control and the “Proliferation (% untreated control) in C4-2B with 2.0 μM MDV-3100” value ([4]; ASO dose 0.04 μM + 2.0 μM MDV-3100) was 45 % untreated control. For the same sequence, the “Proliferation (% untreated control) in C4-2B with […] MDV-3100” value ([4]; ASO dose 0.04 μM + […] MDV-3100) was 74 % untreated control, the “Proliferation (% untreated control) in C4-2B without MDV-3100” value ([4]; ASO dose 0.04 μM) was 72 % untreated control and the “Proliferation (% untreated control) in C4-2B with 0.08 μM MDV-3100” value ([4]; ASO dose 0.08 μM + 0.08 μM MDV-3100) was 89 % untreated control. For the same sequence, the “Proliferation (% untreated control) in C4-2B with 0.4 μM MDV-3100” value ([4]; ASO dose 0.08 μM + 0.4 μM MDV-3100) was 90 % untreated control, the “Proliferation (% untreated control) in C4-2B with 2.0 μM MDV-3100” value ([4]; ASO dose 0.08 μM + 2.0 μM MDV-3100) was 44 % untreated control and the “Proliferation (% untreated control) in C4-2B with […] MDV-3100” value ([4]; ASO dose 0.08 μM + […] MDV-3100) was 107 % untreated control. The “Proliferation (% untreated control) in C4-2B without MDV-3100” value ([4]; ASO dose 0.08 μM) was 100 % untreated control, the “Proliferation (% untreated control) in C4-2B with 0.08 μM MDV-3100” value ([4]; ASO dose 0.2 μM + 0.08 μM MDV-3100) was 51 % untreated control and the “Proliferation (% untreated control) in C4-2B with 0.4 μM MDV-3100” value ([4]; ASO dose 0.2 μM + 0.4 μM MDV-3100) was 48 % untreated control. The “Proliferation (% untreated control) in C4-2B with 2.0 μM MDV-3100” value ([4]; ASO dose 0.2 μM + 2.0 μM MDV-3100) was 48 % untreated control, the “Proliferation (% untreated control) in C4-2B with […] MDV-3100” value ([4]; ASO dose 0.2 μM + […] MDV-3100) was 65 % untreated control and the “Proliferation (% untreated control) in C4-2B without MDV-3100” value ([4]; ASO dose 0.2 μM) was 63 % untreated control. The “Proliferation (% untreated control) in C4-2B with 0.08 μM MDV-3100” value ([4]; ASO dose 1.0 μM + 0.08 μM MDV-3100) was 43 % untreated control, the “Proliferation (% untreated control) in C4-2B with 0.4 μM MDV-3100” value ([4]; ASO dose 1.0 μM + 0.4 μM MDV-3100) was 39 % untreated control and the “Proliferation (% untreated control) in C4-2B with 2.0 μM MDV-3100” value ([4]; ASO dose 1.0 μM + 2.0 μM MDV-3100) was 46 % untreated control. For the same sequence, the “Proliferation (% untreated control) in C4-2B with […] MDV-3100” value ([4]; ASO dose 1.0 μM + […] MDV-3100) was 55 % untreated control, the “Proliferation (% untreated control) in C4-2B without MDV-3100” value ([4]; ASO dose 1.0 μM) was 51 % untreated control and the “synergy with MDV3100” value ([4]; C4-2B cells) was “synergistic with MDV3100”. For the same sequence, the “cell proliferation inhibited, combination” value ([4]; C4-2B cells, 0.2 μM ASO in combination with 0.08 μM MDV3100) was 52%, the “inhibited cell proliferation, ASO alone” value ([4]; C4-2B cells, ASO alone at 0.2 μM) was 37% and the “synergy with MDV3100” value ([5]; 22RV1 cells) was “synergistic with MDV3100”. The “inhibited cell proliferation, ASO alone” value ([5]; 22RV1 cells, ASO alone at 1.0 μM) was 17%, the “cell proliferation inhibited, combination” value ([5]; 22RV1 cells, ISIS 569236 (1.0 μM as printed) in combination with 1.0 μM MDV3100) was 30% and the “Proliferation (% untreated control) in 22RV1 cells with 0.04 μM MDV-3100” value ([5]; ASO dose 0.4 nM + 0.04 μM MDV-3100) was 83 % untreated control. For the same sequence, the “Proliferation (% untreated control) in 22RV1 cells with 0.2 μM MDV-3100” value ([5]; ASO dose 0.4 nM + 0.2 μM MDV-3100) was 93 % untreated control, the “Proliferation (% untreated control) in 22RV1 cells with 1.0 μM MDV-3100” value ([5]; ASO dose 0.4 nM + 1.0 μM MDV-3100) was 79 % untreated control and the “Proliferation (% untreated control) in 22RV1 cells with 5.0 μM MDV-3100” value ([5]; ASO dose 0.4 nM + 5.0 μM MDV-3100) was 82 % untreated control. For the same sequence, the “Proliferation (% untreated control) in 22RV1 without MDV-3100” value ([5]; ASO dose 0.4 nM) was 97 % untreated control, the “Proliferation (% untreated control) in 22RV1 cells with 0.04 μM MDV-3100” value ([5]; ASO dose 1.34 nM + 0.04 μM MDV-3100) was 70 % untreated control and the “Proliferation (% untreated control) in 22RV1 cells with 0.2 μM MDV-3100” value ([5]; ASO dose 1.34 nM + 0.2 μM MDV-3100) was 77 % untreated control. For the same sequence, the “Proliferation (% untreated control) in 22RV1 cells with 1.0 μM MDV-3100” value ([5]; ASO dose 1.34 nM + 1.0 μM MDV-3100) was 70 % untreated control, the “Proliferation (% untreated control) in 22RV1 cells with 5.0 μM MDV-3100” value ([5]; ASO dose 1.34 nM + 5.0 μM MDV-3100) was 72 % untreated control and the “Proliferation (% untreated control) in 22RV1 without MDV-3100” value ([5]; ASO dose 1.34 nM) was 83 % untreated control. The “Proliferation (% untreated control) in 22RV1 cells with 0.04 μM MDV-3100” value ([5]; ASO dose 4.0 nM + 0.04 μM MDV-3100) was 61 % untreated control, the “Proliferation (% untreated control) in 22RV1 cells with 0.2 μM MDV-3100” value ([5]; ASO dose 4.0 nM + 0.2 μM MDV-3100) was 60 % untreated control and the “Proliferation (% untreated control) in 22RV1 cells with 1.0 μM MDV-3100” value ([5]; ASO dose 4.0 nM + 1.0 μM MDV-3100) was 52 % untreated control. For the same sequence, the “Proliferation (% untreated control) in 22RV1 cells with 5.0 μM MDV-3100” value ([5]; ASO dose 4.0 nM + 5.0 μM MDV-3100) was 52 % untreated control, the “Proliferation (% untreated control) in 22RV1 without MDV-3100” value ([5]; ASO dose 4.0 nM) was 69 % untreated control and the “Proliferation (% untreated control) in 22RV1 cells with 0.04 μM MDV-3100” value ([5]; ASO dose 13.4 nM + 0.04 μM MDV-3100) was 24 % untreated control. The “Proliferation (% untreated control) in 22RV1 cells with 0.2 μM MDV-3100” value ([5]; ASO dose 13.4 nM + 0.2 μM MDV-3100) was 20 % untreated control, the “Proliferation (% untreated control) in 22RV1 cells with 1.0 μM MDV-3100” value ([5]; ASO dose 13.4 nM + 1.0 μM MDV-3100) was 18 % untreated control and the “Proliferation (% untreated control) in 22RV1 cells with 5.0 μM MDV-3100” value ([5]; ASO dose 13.4 nM + 5.0 μM MDV-3100) was 24 % untreated control. For the same sequence, the “Proliferation (% untreated control) in 22RV1 without MDV-3100” value ([5]; ASO dose 13.4 nM) was 37 % untreated control, the “Proliferation (% untreated control)” value ([6]; CSS + DHT medium, 0.04 μM) was 99 % untreated control and the “Proliferation (% untreated control)” value ([6]; CSS + DHT medium, 0.2 μM) was 99 % untreated control. For the same sequence, the “Proliferation (% untreated control)” value ([6]; CSS + DHT medium, 1 μM) was 88 % untreated control, the “Proliferation (% untreated control)” value ([6]; CSS + DHT medium, 5.0 μM) was 51 % untreated control and the “Proliferation (% untreated control)” value ([6]; complete medium, 0.04 μM) was 103 % untreated control. For the same sequence, the “Proliferation (% untreated control)” value ([6]; complete medium, 0.2 μM) was 81 % untreated control, the “Proliferation (% untreated control)” value ([6]; complete medium, 1 μM) was 57 % untreated control and the “Proliferation (% untreated control)” value ([6]; complete medium, 5.0 μM) was 58 % untreated control. For the same sequence, the “proliferation of C4-2 cells” value [6, 7] was “reduced proliferation of the cells in a dose dependent manner compared to the control”.
